# Measurements as given in ChEMBL document CHEMBL1201862, “PubChem BioAssay data set” (2004).
# Calls of active or inactive are those of the source.
# Key:
# [1] = molecular target: T1, High affinity choline transporter 1 (Homo sapiens, UniProt Q9GZV3); assay: CHT inhibitors, dose response, cell-based, 5-point CRC, membrane potential dye (AID 504840); format: functional
# T1 sequence (Q9GZV3 whole entry): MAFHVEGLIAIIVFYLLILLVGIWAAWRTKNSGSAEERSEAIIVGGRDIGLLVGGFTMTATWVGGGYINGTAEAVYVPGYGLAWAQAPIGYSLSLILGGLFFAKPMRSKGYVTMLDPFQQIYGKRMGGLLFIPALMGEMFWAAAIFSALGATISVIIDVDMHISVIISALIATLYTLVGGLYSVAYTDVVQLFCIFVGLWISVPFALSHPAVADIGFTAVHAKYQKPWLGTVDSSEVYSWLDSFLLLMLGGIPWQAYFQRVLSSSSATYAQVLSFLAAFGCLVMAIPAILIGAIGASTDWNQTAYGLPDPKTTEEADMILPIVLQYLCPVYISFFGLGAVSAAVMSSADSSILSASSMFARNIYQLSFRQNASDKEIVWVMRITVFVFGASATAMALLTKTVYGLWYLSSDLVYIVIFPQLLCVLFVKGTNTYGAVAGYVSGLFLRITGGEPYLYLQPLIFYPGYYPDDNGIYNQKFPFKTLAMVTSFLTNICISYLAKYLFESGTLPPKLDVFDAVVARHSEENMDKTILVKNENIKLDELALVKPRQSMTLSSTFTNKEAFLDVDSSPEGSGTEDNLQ
# Cytochrome P450 1A2 = molecular target: T2, Cytochrome P450 1A2 (Homo sapiens, UniProt P05177);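 also: PubChem cytochrome P450 panel assay, CYP1A2 panel member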
# T2 sequence (P05177 whole entry): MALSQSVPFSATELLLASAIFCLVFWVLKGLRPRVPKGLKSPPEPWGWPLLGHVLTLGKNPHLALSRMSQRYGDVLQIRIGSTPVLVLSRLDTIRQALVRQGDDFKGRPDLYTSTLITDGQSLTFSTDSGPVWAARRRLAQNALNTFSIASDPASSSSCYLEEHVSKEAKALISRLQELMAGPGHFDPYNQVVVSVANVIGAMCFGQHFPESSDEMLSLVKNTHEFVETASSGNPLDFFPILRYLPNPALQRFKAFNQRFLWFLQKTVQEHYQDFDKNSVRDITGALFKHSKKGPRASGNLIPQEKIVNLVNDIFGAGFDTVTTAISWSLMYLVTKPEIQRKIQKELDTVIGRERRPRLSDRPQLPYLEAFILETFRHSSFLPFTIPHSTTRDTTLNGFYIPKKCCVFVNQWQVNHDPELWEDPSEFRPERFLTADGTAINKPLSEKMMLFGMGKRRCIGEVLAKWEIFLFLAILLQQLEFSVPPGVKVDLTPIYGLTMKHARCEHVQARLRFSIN
# [2] = molecular target: Delta-type opioid receptor (Homo sapiens, UniProt P41143); assay: Counterscreen for agonists of heterodimerization of the mu 1 (OPRM1) and delta 1 (OPRD1) opioid receptors: Luminescence-based cell-based high throughput dose response assay to identify agonists of OPRD1 homodimerization. [Related pubchem assays (depositor defined):AID504326, AID504355, AID504692, AID504904, AID504905]; format: functional
# Mu-type opioid receptor = Mu-type opioid receptor (Homo sapiens, UniProt P35372); assay: Counterscreen for agonists of heterodimerization of the mu 1 (OPRM1) and delta 1 (OPRD1) opioid receptors: Luminescence-based cell-based high throughput dose response assay to identify agonists of OPRM1 homodimerization.; format: functional;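 also: U2OS cells expressing OPRM1 and beta-arrestin as split beta-galactosidase partners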
# Cytochrome P450 2C9 = Cytochrome P450 2C9 (Homo sapiens, UniProt P11712)
# [3] = molecular target: 5-hydroxytryptamine receptor 5A (Homo sapiens, UniProt P47898); assay: Counterscreen for agonists of OPRM1-OPRD1 heterodimerization: luminescence-based cell-based high throughput dose response assay to identify agonists of 5-hydroxytryptamine (serotonin) 5A receptor (HTR5A). [Related pubchem assays (depositor defined):AID504326, AID504355, AID504692, AID504904, AID504905]; format: functional
# Large T antigen = Large T antigen (Simian virus 40, UniProt P03070); format: functional, Betapolyomavirus macacae;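 also: Confirmatory-stage PubChem screen for compounds that inhibit SV40 T antigen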
# [4] = molecular target: T3, Rac GTPase-activating protein 1 (Homo sapiens, UniProt Q9H0H5); assay: MgcRacGAP GTPase-activating activity inhibitors, confirmation, biochemical, ADP Hunter fluorescence, primary and confirmatory (AID 624330); format: functional
# T3 sequence (Q9H0H5 whole entry): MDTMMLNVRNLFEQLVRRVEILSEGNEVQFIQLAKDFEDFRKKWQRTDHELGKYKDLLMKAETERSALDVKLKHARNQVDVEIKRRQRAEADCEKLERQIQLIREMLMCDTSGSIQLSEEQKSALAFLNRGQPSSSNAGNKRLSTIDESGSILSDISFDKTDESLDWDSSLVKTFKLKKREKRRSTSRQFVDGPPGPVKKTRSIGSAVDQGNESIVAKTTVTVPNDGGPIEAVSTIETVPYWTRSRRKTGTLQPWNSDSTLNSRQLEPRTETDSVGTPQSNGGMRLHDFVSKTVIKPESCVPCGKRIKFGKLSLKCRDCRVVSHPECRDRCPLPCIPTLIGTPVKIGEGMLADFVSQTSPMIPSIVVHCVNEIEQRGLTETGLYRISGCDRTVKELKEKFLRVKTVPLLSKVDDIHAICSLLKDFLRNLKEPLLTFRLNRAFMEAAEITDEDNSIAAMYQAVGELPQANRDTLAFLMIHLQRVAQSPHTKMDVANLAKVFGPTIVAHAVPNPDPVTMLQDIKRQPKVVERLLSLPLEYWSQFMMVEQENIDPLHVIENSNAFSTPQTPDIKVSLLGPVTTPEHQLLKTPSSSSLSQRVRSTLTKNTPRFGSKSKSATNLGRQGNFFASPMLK
# [5] = molecular target: Dual specificity tyrosine-phosphorylation-regulated kinase 1A (Rattus norvegicus, UniProt Q63470); format: biochemical, Homo sapiens
# [6] = HepG2 cell cytotoxicity, dose response, cytotoxicity control for Shn3 inhibitor project, CellTiter-Glo, cherry-picked (AID 624134); format: functional, cell-based
# [7] = Shn3 3'UTR reporter inhibitors, dose response, cell-based, Clone20 osteoblasts, firefly luciferase, cherry-picked (AID 624132); format: functional;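 also: firefly luciferase luminescence from reporter carrying the Shn3 3'UTR in osteoblasts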
# [8] = molecular target: Glucose-6-phosphate 1-dehydrogenase (Homo sapiens, UniProt P11413); assay: human G6PD enzyme inhibitors, dose response, selectivity assay for P. falciparum G6PD inhibitor project, biochemical, fluorescence (AID 504792); format: functional
# [9] = control 3'UTR Renilla luciferase suppression, dose response, counter-screen for Shn3 inhibitor project, cell-based, Clone20-Shn3RL, cherry-picked (AID 624133); format: functional
# [10] = Luminescence Cell-Based Dose Retest to Confirm Inhibitors of Cancer Stem Cells. [Related pubchem assays (depositor defined):AID2717, AID2721]; format: functional; settings: Homo sapiens
# [11] = molecular target: T4, Microphthalmia-associated transcription factor (Homo sapiens, UniProt O75030); assay: TRPM1 promoter luciferase signal decrease, dose response, MITF inhibitor project, cell-based, SK-MEL-5, cherry-picked, set 3 (AID 493073); format: functional
# T4 sequence (O75030 whole entry): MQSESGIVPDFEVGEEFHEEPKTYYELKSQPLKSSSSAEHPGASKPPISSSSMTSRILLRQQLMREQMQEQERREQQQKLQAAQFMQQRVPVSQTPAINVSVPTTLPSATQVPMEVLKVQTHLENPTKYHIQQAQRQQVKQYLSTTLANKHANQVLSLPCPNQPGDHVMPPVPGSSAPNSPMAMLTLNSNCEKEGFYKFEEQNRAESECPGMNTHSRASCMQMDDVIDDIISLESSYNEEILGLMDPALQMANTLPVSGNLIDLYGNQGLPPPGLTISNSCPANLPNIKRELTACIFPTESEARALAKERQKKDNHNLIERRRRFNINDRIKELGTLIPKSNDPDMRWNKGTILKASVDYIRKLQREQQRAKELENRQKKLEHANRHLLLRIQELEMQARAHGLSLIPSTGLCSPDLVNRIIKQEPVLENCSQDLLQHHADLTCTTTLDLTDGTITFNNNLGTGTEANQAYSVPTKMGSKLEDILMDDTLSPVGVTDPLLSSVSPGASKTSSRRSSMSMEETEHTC
# [12] = Luminescence Cell-Based Dose Confirmation HTS to Identify Activators of 5'UTR Stem-Loop Driven Alpha-Synuclein mRNA Translation in H4 Neuroglioblastoma Cells. [Related pubchem assays: 1829 (Project Summary), 1814 (Primary HTS)]; format: functional
# [13] = Luminescence Cell-Based Dose Response HTS to Identify Activators of Luciferase Translation or Activity in H4 […] Cells. [Related pubchem assays: 1829 (Project Summary), 1814 (Primary HTS)]; format: functional
# H4 = assay: Luminescence Cell-Based Dose Response HTS to Identify Activators of 5'UTR Stem-Loop Driven Prion Protein mRNA Translation in H4 Neuroglioblastoma Cells. [Related pubchem assays: 1829 (Project Summary), 1814 (Primary HTS)]; format: functional; settings: Homo sapiens
# Streptokinase A = molecular target: T5, Streptokinase A (Streptococcus pyogenes serotype M1, UniProt P10520); assay: S. pyogenes streptokinase expression inhibitors, potency, dose response, plasminogen activation absorbance, OD405 (AID 1914); format: functional, Streptococcus pyogenes M1 GAS;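 also: secreted streptokinase activity via plasminogen activation per viability signal from cell pellet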
# T5 sequence (P10520 whole entry): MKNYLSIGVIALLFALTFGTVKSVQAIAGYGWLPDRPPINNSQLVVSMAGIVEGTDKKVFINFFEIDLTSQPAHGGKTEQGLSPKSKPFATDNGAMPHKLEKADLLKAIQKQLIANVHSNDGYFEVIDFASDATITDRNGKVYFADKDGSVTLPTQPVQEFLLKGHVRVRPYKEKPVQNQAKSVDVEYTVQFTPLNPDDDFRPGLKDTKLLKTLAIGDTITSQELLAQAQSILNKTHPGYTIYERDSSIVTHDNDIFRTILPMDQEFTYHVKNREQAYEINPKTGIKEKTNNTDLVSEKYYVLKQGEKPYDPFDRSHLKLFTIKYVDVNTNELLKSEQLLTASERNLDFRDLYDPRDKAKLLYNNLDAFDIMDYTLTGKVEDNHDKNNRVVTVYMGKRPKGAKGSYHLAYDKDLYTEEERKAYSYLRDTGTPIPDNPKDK
# [14] = tested on: Streptococcus sp. 'group A'; assay: growth inhibition of control SK(-) GAS strain, dose response, counter-screen for streptokinase expression inhibitor project, luminescence, kanamycin, BacTiterGlo, confirmation (AID 1900); format: functional, organism-based
# [15] = cytotoxicity in HMLE control line with eGFP shRNA, dose response, counter-screen for HMLE_sh_ECad selective toxicity project, cell-based, HMLE_sh_eGFP, luminescence (AID 463074); format: functional, Homo sapiens;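 also: HMLE human mammary epithelial cells expressing control shRNA against eGFP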
# Streptococcus = assay: Group A Streptococcus viability loss, dose response, counter-screen for streptokinase expression inhibitor project, luminescence, BacTiterGlo (AID 1915); format: functional, organism-based;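 also: potency for reduction of bacterial viability or growth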
# Cytochrome P450 2C19 = Cytochrome P450 2C19 (Homo sapiens, UniProt P33261); assay: Cytochrome panel assay with activity outcomes. Panel member name: p450-cyp2c19 Compounds with AC50 equal or less than 10 uM are considered active; format: functional
# Chain of Cytochrome P450 2C19 (P33261 whole entry): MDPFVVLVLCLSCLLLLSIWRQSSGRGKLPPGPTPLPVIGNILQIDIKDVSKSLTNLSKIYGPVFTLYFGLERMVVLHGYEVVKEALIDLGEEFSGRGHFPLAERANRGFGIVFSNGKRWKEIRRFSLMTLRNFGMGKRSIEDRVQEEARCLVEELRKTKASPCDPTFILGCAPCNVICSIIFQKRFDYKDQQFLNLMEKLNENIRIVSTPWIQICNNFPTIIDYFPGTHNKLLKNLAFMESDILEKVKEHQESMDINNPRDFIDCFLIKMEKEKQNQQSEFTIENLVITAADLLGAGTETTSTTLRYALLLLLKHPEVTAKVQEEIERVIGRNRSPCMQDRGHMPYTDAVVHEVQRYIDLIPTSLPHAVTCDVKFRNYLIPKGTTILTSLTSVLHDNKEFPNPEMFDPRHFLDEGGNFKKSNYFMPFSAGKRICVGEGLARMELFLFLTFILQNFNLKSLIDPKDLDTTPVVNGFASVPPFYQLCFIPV
# Chain of 5-hydroxytryptamine receptor 5A (P47898 whole entry): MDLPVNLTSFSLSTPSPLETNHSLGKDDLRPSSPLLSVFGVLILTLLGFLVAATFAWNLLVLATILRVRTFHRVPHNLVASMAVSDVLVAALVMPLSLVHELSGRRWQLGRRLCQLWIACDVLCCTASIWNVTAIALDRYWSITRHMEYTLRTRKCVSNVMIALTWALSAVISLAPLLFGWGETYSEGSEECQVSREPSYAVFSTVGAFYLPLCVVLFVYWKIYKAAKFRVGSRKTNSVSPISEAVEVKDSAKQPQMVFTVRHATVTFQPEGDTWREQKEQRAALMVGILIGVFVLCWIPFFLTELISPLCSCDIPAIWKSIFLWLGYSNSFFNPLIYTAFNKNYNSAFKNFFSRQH
# Chain of Mu-type opioid receptor (P35372 whole entry): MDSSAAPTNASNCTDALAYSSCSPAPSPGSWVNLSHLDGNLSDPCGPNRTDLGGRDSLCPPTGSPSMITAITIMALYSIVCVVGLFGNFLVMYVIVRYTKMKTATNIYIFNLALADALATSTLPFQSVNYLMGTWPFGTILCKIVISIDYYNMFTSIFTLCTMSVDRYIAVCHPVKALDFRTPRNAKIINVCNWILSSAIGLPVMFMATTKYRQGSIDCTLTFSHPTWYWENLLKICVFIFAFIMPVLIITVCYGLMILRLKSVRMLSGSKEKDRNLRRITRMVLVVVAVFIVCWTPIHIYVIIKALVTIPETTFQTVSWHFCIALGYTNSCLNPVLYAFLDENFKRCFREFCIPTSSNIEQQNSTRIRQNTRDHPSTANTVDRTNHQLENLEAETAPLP
# Chain of Delta-type opioid receptor (P41143 whole entry): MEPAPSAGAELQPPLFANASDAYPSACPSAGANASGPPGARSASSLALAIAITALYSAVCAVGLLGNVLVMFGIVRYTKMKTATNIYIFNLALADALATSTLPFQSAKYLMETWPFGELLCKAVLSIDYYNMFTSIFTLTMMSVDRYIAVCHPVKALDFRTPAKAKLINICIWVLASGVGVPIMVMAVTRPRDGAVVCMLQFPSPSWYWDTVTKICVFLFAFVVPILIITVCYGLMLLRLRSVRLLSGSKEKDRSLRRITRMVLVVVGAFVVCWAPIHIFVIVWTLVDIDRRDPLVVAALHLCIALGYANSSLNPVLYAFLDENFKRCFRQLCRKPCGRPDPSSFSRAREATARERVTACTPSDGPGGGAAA
# Chain of Large T antigen (P03070 whole entry): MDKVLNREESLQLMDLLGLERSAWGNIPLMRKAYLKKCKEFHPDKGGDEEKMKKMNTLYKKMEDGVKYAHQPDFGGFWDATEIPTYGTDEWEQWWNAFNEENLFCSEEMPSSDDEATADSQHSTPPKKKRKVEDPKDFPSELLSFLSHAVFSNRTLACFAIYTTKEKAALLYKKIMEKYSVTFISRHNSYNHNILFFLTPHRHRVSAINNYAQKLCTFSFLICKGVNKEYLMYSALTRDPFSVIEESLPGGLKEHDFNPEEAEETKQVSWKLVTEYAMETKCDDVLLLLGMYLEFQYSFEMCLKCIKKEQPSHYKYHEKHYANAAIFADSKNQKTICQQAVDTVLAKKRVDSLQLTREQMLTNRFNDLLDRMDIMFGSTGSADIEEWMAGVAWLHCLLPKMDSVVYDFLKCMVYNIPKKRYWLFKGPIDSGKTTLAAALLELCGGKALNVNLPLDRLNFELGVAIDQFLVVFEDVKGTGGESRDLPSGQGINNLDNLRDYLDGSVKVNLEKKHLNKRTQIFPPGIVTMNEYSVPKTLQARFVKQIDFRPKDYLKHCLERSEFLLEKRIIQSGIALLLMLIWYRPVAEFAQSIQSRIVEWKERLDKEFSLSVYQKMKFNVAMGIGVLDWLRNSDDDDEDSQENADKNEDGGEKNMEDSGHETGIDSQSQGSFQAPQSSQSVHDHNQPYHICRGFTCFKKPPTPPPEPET
# Chain of Cytochrome P450 2C9 (P11712 whole entry): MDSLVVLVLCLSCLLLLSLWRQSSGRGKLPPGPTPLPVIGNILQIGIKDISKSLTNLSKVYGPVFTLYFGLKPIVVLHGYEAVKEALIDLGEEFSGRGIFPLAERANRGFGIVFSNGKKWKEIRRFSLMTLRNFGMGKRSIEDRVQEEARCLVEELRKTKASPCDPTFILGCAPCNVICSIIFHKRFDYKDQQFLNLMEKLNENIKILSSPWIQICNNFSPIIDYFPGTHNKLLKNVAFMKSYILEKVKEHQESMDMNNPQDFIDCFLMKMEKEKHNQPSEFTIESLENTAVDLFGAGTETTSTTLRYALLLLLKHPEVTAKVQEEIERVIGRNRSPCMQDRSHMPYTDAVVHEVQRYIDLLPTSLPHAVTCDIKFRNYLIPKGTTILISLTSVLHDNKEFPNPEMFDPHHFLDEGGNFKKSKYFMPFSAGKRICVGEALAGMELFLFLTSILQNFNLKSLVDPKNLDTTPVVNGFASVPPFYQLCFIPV
# Chain of Glucose-6-phosphate 1-dehydrogenase (P11413 whole entry): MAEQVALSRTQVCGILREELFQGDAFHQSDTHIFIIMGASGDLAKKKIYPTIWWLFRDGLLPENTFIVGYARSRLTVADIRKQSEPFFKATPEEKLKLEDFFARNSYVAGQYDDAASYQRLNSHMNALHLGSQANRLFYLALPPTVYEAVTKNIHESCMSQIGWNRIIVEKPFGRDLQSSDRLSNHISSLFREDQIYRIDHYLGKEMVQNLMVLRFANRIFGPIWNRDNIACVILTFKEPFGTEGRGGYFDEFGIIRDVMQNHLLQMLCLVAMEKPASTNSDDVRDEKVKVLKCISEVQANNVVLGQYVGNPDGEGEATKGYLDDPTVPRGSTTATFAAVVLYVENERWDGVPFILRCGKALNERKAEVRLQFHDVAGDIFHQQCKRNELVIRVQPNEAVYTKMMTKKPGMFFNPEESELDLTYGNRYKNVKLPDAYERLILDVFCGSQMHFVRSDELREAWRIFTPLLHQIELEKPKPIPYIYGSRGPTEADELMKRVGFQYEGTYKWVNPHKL
structure (smiles),measurement,setting,value
Cc1cc(/C=N/NC(=O)C(=O)N2CCCC2)c(C)n1-c1cccc(Br)c1,IC50,[1],13.8 µM (active)
COc1ccc(C(C(=O)NC2CCCCC2)N(C(=O)Cc2c[nH]c3ccccc23)c2ccc(NC(C)=O)cc2)cc1OC (configuration not stated),AC50,Cytochrome P450 1A2,25.1 µM (inconclusive)
same,EC50,[2],> 92.5 µM (inactive)
same,EC50,Mu-type opioid receptor,> 92.5 µM (inactive)
same,AC50,Cytochrome P450 2C9,12.6 µM (inconclusive)
same,EC50,[3],> 92.5 µM (inactive)
CC(/C=C/c1ccc(O)cc1)=N/O,IC50,Large T antigen,8.82 µM (active)
same,IC50,[4],10.5 µM (active)
same,AC50,[5],1.54 µM (active)
COC(=O)c1cc2c(n1S(=O)(=O)c1ccc(C)cc1)C(=O)C(=O)c1[nH]cc(C(=O)OCc3ccccc3)c1-2,AC50,[6],1.94 µM (active)
same,AC50,[7],1.2 µM (active)
same,EC50,[2],> 92.4 µM (inactive)
same,IC50,[8],> 80 µM (inactive)
same,EC50,Mu-type opioid receptor,> 92.4 µM (inactive)
same,AC50,[9],1.64 µM (active)
same,EC50,[3],> 92.4 µM (inactive)
CC(NC(=O)c1ccc([N+](=O)[O-])o1)C12CC3CC(CC(C3)C1)C2 (configuration not stated),AC50,[10],4.68 µM (active)
same,AC50,[11],15.1 µM (active)
same,EC50,[12],> 120 µM (not active)
same,EC50,[13],> 120 µM (not active)
same,EC50,H4,13.8 µM (active)
Cc1ccc(C(=O)N/C(=C\c2ccc(-c3ccccc3[N+](=O)[O-])o2)C(=O)NCCN(C)C)cc1,AC50,[11],4.87 µM (active)
CCN1CCN(c2ncnc3scc(-c4ccc(OC)cc4)c23)CC1,IC50,[1],12.9 µM (active)
Brc1ccc(NC2=Nc3ccccc3CC2)cc1,EC50,[2],> 92.5 µM (inactive)
same,EC50,Mu-type opioid receptor,52.1 µM (inactive)
same,EC50,[3],> 92.5 µM (inactive)
O=C(CSc1nnc(-c2ccc3c(c2)OCO3)o1)Nc1ncc(C(F)(F)F)cc1Cl,AC50,[10],5.84 µM (active)
same,EC50,Streptokinase A,> 150 µM (not active)
same,EC50,[14],1.16 µM (active)
same,AC50,[15],28.5 µM (active)
same,EC50,Streptococcus,20.4 µM (active)
Nc1nc2cc([N+](=O)[O-])ccc2[nH]1,AC50,[5],7.07 µM (active)
Cc1cc(C)nc(-n2ncc3c2CC(c2cccc(Cl)c2)CC3=O)n1 (configuration not stated),AC50,[10],29.1 µM (active)
same,AC50,[15],46.8 µM (active)
CC1CCCCC1NC(=O)c1c(O)n2ccccc2nc1=O (configuration not stated),IC50,[1],4.79 µM (active)
CC1=NC(C)(C)Cc2ccccc21.O=C(O)c1ccccc1O,IC50,[1],13.2 µM (active)
same,AC50,Cytochrome P450 2C19,inconclusive
